Where two headings read alike, the source gives them in different places. One block for each compound: values may come before it.
Assays:
[1] = tested on: Arachidonic acid-induced inflammation (mouse ear); test: Topical anti-inflammatory test against arachidonic acid-induced inflammation (mouse ear swelling); format: in vivo, mouse (ICR, male); settings: for % Inhibition of swelling: 1 hr A.A.; for % Inhibition of swelling / Ear Thickness Measurement, Left Ear (No A.A.) / Ear Thickness Measurement, Right Ear (1 hr. A.A.) / Swelling (R - L): n = 5/group; for Ear Thickness Measurement, Left Ear (No A.A.) / Ear Thickness Measurement, Right Ear (1 hr. A.A.) / Swelling (R - L): mean ± SEM
Description: The anti-inflammatory studies were carried out utilizing a topical model with arachidonic acid as the inflammation-inducing compound. 15-LO initiates the metabolic pathway leading to the formation of the lipoxins by converting arachidonic acid to […] (15-HPETE). Lipoxins may share some of the bioactivity associated with leukotrienes, the end-product associated with the 5-LO arachidonic acid metabolic pathway. A solution of arachidonic acid was applied to the surface of a mouse ear with the test substance (THBH) […]. Ear swelling was measured after an additional 60 minutes as an index of inflammation. For all test procedures, % inhibition was calculated according to the formula
where Ic is the increase in ear thickness (mm) in control mice and It is the increase in ear thickness in treated mice (see Example 5).
Arachidonic acid (2 mg in 20 μl acetone:pyridine:water) in a ratio of 7:2:1) was applied topically to the anterior and posterior surfaces of the right ear of mice 30 min following similar application of hopanoid or control (20 μl). Swelling of the ear was then measured by a Dyer model micrometer gauge after 60 min as an index of inflammation. For all test procedures, % inhibition was calculated according to formula (1). Five mice/dose level of test substance were used with negative and positive control groups run concurrently. The positive control was indomethacin.

[2] = target: T1, Prostaglandin H Synthase (Ovis aries, UniProt P05979); test: Prostaglandin H synthase (cyclooxygenase) assay (oxygen consumption); format: biochemical
T1 construct: purchased Oxford Biomedical Research Co., Oxford, Mich
T1 sequence (P05979 25-600): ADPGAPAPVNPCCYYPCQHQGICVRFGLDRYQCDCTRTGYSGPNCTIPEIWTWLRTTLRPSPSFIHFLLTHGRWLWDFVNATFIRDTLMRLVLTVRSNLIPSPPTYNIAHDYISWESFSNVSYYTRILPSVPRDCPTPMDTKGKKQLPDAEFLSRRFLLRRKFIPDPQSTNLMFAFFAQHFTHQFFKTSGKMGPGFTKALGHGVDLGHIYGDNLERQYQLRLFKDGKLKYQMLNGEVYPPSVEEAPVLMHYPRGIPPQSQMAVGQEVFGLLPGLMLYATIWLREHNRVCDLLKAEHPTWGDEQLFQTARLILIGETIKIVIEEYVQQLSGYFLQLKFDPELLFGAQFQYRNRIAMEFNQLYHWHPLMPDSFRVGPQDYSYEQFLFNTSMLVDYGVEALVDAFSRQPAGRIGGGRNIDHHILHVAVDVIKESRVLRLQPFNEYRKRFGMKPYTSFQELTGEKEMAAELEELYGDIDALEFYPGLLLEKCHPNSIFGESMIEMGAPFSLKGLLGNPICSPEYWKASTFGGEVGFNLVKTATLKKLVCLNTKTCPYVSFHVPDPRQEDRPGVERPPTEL
Description: Prostaglandin H synthase was obtained from Oxford Biomedical Research Co., Oxford, Mich. The reaction mixture (1.80 ml) consisted of 0.5 mM phenol, 1 μM hematin, enzyme (3.75 μg in 5 μl), 25 μl of inhibitor dissolved in ethanol, and potassium phosphate buffer (0.1 M, pH 7.8), and was preincubated for 3 min. The reaction was started by injecting 15 μl of arachidonic acid dissolved in ethanol, yielding a final concentration of 100 μM arachidonic acid in the reaction vessel. The disappearance of dissolved oxygen was monitored as described in Example 2. The assay system was checked by measuring the inhibition in indomethacin, a known inhibitor of prostaglandin H synthase.

[3] = target: T2, Human 5-LO (Homo sapiens, UniProt P09917); test: Assay of recombinant human 5-lipoxygenase (oxygen consumption); format: biochemical
T2 construct: purchased Oxford Biomedical Research Co., Oxford, Mich
T2 sequence (P09917 1-674): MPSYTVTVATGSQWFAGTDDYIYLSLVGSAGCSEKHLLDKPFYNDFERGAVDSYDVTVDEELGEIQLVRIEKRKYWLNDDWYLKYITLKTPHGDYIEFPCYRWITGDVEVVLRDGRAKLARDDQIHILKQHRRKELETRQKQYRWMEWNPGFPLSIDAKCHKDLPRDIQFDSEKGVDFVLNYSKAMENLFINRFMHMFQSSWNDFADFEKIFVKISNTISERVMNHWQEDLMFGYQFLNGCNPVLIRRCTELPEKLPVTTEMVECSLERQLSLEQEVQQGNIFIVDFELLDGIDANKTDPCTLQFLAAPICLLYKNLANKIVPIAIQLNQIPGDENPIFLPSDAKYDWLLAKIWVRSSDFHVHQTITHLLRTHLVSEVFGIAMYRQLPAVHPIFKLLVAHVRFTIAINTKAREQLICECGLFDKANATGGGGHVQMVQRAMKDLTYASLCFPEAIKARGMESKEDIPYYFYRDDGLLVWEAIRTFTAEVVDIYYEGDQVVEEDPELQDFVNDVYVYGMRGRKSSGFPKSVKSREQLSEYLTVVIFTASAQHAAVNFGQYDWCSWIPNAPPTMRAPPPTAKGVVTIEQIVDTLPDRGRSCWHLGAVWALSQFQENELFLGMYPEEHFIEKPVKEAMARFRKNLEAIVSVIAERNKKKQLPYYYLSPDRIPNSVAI
Description: The reaction mixture (1.80 ml) consisted of 0.25 mM CaCl2, 0.13 mM ATP, 7 μl of phosphatidylcholine (12 μg/2 ml ethanol), 25 μl of inhibitor dissolved in ethanol, and Tris-HCl buffer, 50 mM, pH 7.4, and preincubated for 3 min. The reaction was started by injecting 5 μl of arachidonic acid (3.8 mg/5 ml ethanol) yielding a final arachidonic acid concentration of 4.5 μM in the reaction mixture. The rate of disappearance of dissolved oxygen was monitored with an oxygen electrode at 37° C., as described in Example 2. The O2 concentration in an air-saturated aqueous solution at 37° C. was calculated to be 0.185 mM.

[4] = target: T3, Soybean 15-LO (Glycine max, UniProt P08170); test: Assay of soybean 15-lipoxygenase (oxygen consumption, Clark oxygen electrode); format: biochemical
T3 construct: purchased Sigma Chemical Co. (St. Louis, Mo.) Type V
T3 sequence (P08170 1-839): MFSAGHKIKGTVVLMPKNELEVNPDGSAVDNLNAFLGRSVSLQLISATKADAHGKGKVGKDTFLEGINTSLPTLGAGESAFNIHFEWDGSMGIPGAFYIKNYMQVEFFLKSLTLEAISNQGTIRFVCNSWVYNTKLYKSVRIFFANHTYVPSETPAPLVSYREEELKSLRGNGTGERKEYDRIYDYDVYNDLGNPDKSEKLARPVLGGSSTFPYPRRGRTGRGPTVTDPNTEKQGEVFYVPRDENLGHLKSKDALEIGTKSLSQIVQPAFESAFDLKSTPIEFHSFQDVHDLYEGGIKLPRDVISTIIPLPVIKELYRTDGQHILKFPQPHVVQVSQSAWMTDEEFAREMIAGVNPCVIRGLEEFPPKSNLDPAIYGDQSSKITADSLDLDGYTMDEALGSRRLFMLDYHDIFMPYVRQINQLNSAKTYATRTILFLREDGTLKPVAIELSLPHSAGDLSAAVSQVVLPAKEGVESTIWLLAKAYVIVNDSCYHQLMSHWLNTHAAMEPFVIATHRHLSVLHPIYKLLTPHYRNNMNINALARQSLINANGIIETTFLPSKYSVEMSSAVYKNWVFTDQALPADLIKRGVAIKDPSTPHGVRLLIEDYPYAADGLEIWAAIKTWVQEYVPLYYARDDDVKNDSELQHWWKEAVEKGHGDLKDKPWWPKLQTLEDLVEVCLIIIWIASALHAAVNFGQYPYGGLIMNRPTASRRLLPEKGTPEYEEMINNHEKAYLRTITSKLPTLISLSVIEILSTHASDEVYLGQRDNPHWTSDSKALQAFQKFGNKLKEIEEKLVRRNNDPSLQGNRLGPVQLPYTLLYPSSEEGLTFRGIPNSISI
Description: Initial screening was carried out on three hopanoids isolated from Z. mobilis (FIGS. 1,b,c,d). These compounds were purified as described and screened for their ability to inhibit three enzymes known for their activity in the metabolism of arachidonic acid. These enzymes, soybean 15-lipoxygenase (15-LO), human 5-lipoxygenase (5-LO) and prostaglandin H synthase (Table I), are known to be inhibited by most non-steroidal anti-inflammatory drugs (Parthasarathy and Rankin. 1992. Prog. Lipid. Res. vol. 31, p. 127). Soybean 15-LO was inhibited by one of the hopanoids, tetrahydroxybacteriohopane (THBH), with an IC50 of about 10 μM. […] The two other natural hopanoid compounds, THBH-GA and THBH-Et, were also evaluated for their effect on soybean 15-LO.
Soybean 15 LO (Type V) was obtained from Sigma Chemical Co. (St. Louis, Mo.). The reaction mixture (1.8 ml) consisted of 0.1 M borate buffer, pH 9.0, 5 μl (0.5 μg, 315 units) of soybean 15-LO dissolved in borate buffer, and 25 μl of inhibitor dissolved in ethanol, and was preincubated for 3 min. The reaction was started by injecting 100 μl of substrate mixture (prepared fresh daily and consisting of 1.0 mg arachidonic acid sonicated in 2.3 ml 0.1 M borate buffer, pH 9.0) yielding a final concentration of 50.9 μM arachidonic acid in the reaction vessel. The rate of disappearance of dissolved oxygen was monitored with a Clark Oxygen Electrode (Yellow Springs Instruments, Yellow Springs, Ohio) with the temperature controlled at 25° C., according to the method described by Breton et al. (1993. Prostaalandins, Leucotrienes, and Fatty Acids. vol. 49, p. 929, herein incorporated by reference). The O2 concentration in an air-saturated aqueous solution at 25° C., was calculated to be 0.24 mM. The assay system was checked by measuring the inhibition of phenidone, a known inhibitor of soybean 15-LO. Each potential inhibitor was tested at each of the listed concentrations at least three times and enzyme activities presented are the means ± standard deviations, reported as relative activities (calculated assuming that the activity in the minus-inhibitor control=100). The actual activities of the controls (in units of μM O2 consumed/min/mg protein) are also presented as a footnote to Table I.

[5] = 25 μM, control = 100, read-out: Enzyme Activity (Relative ± S.D.)
[6] = 50 μM, control = 100, read-out: Enzyme Activity (Relative ± S.D.)
[7] = control = 100, read-out: Enzyme Activity (Relative ± S.D.)
[8] = read-out: Enzyme Activity (Relative ± S.D.)

Structure (SMILES): C[C@H](CC[C@@H](O)[C@@H](O)[C@@H](O)CO)[C@H]1CC[C@]2(C)[C@H]3CC[C@@H]4[C@@]5(C)CCCC(C)(C)[C@@H]5CC[C@@]4(C)[C@]3(C)CC[C@@H]12 [THBH, tetrahydroxybacteriohopane]
% Inhibition of swelling ([1]; 10 mg/ear): 41%
Ear Thickness Measurement, Left Ear (No A.A.) ([1]; 10 mg/ear): 22.0 ± 0.7 × 0.01 mm
Ear Thickness Measurement, Right Ear (1 hr. A.A.) ([1]; 10 mg/ear): 31.6 ± 1.5 × 0.01 mm
Swelling (R - L) ([1]; 10 mg/ear): 9.6 ± 1.1 × 0.01 mm
effect on arachidonic acid-caused swelling (in words) ([1]; mouse ear): significantly affects swelling caused by the application of arachidonic acid
remaining activity at 25 µM [2, 5]: 102 ± 3%
remaining activity at 50 µM [2, 6]: 103 ± 2%
inhibition of prostaglandin H synthase (in words) ([2]; 25 or 50 μM): not significantly inhibited
remaining activity at 25 µM [3, 7]: 98 ± 2%
remaining activity at 50 µM [3, 6]: 97 ± 1%
inhibition of human 5-LO (in words) ([3]; 25 or 50 μM): not significantly inhibited
IC50 [4]: ~10 µM
selectivity for 15-LO over 5-LO and prostaglandin H synthase (in words) [4]: selectively inhibits 15-LO without inhibiting either 5-LO or prostaglandin H synthase
remaining activity at 6.75 µM [4, 8]: 68 ± 5%
remaining activity at 12.5 µM [4, 8]: 48 ± 9%
remaining activity at 25 µM [4, 8]: 15 ± 6%
remaining activity at 50 µM [4, 8]: 4 ± 3%
remaining activity at 100 µM [4, 8]: 11 ± 2%

Structure (SMILES): CC(CCC(O)C(O)C(O)COC1OC(CO)C(O)C(O)C1N)C1CCC2(C)C1CCC1(C)C2CCC2C3(C)CCCC(C)(C)C3CCC21C (stereo not shown) [THBH-GA, tetrahydroxybacteriohopane glucosamine]
inhibition or stimulation of soybean 15-LO (in words) [4]: stimulated enzyme activity
remaining activity at 25 µM [4, 8]: 172 ± 24%
remaining activity at 50 µM [4, 8]: 188 ± 14%

Structure (SMILES): CC(CCC(O)C(O)C(O)COC1C(N)C(O)C(O)C1(O)CO)C1CCC2(C)C1CCC1(C)C2CCC2C3(C)CCCC(C)(C)C3CCC21C (stereo not shown) [THBH-Et, tetrahydroxybacteriohopane ether]
inhibition or stimulation of soybean 15-LO (in words) [4]: stimulated enzyme activity
remaining activity at 25 µM [4, 8]: 151 ± 10%
remaining activity at 50 µM [4, 8]: 250 ± 38%

Structure (SMILES): CC(=O)OCC(OC(C)=O)C(OC(C)=O)C(CCC(C)C1CCC2(C)C1CCC1(C)C2CCC2C3(C)CCCC(C)(C)C3CCC21C)OC(C)=O (stereo not shown) [THBH-Acet]
inhibition or stimulation of soybean 15-LO (in words) [4]: destroyed its ability to inhibit this 15-LO
remaining activity at 25 µM [4, 8]: 89 ± 11%
remaining activity at 50 µM [4, 8]: 114 ± 17%

remaining activity at 25 µM [3, 7]: 55 ± 2%
remaining activity at 25 µM [4, 5]: 34 ± 4%
Structure (SMILES): O=C1CCN(c2ccccc2)N1 [Phenidone, phenidone, reference compound]

Structure (SMILES): COc1ccc2c(c1)c(CC(=O)O)c(C)n2C(=O)c1ccc(Cl)cc1 [Indomethacin, indomethacin, reference compound]
% Inhibition of swelling ([1]; 3 mg/ear): 56%
Ear Thickness Measurement, Left Ear (No A.A.) ([1]; 3 mg/ear): 22.2 ± 0.5 × 0.01 mm
Ear Thickness Measurement, Right Ear (1 hr. A.A.) ([1]; 3 mg/ear): 29.4 ± 1.5 × 0.01 mm
Swelling (R - L) ([1]; 3 mg/ear): 7.2 ± 1.5 × 0.01 mm
remaining activity at 2.4 µM ([2]; 2.4 μM, control = 100, read-out: Enzyme Activity (Relative ± S.D.)): 7 ± 2%

From US6177415A, “Bacteriohopanetetrol and related compounds useful for modulation of lipoxygenase activity and anti-inflammatory applications” (The United States of America as represented by the …, priority 1997, dated 2001)
